From patent US6037333A, “Microbe-inhibiting compositions” (Trustees of Tufts College, priority 1998, dated 2000)

Tests used:
Format in all cases: cell-based
[1] = tested on: Acanthamoeba; assay: Adhesion of amoebae to corneal epithelial cell monolayer; conditions: saccharide present in media
[2] = tested on: Acanthamoeba; assay: Acanthamoeba-induced CPE assay, primary cultures of corneal epithelium; conditions: primary cultures as target cells
Procedure: In vitro cytopathic assays were performed using cell cultures of corneal epithelium as target cells. Primary cell cultures of rabbit corneal epithelium were prepared according to published protocols (M. M. Jumblatt, Invest. Opthalmol. Visual Sci. 24:1139-43, 1983) using rabbit eyes from Pel-Freez Biologicals (N. Panjwani et al., Invest. Opthalmol. Visual Sci. 31:689-695, 1990) (Rogers, AK). Generally, seventy-five eyes were processed at a time. Primary cultures have limited life span and can only be passaged 2 to 3 times without significant alteration in cell morphology.
(§1) To characterize the role of carbohydrate-mediated host-parasite interactions in the Acanthamoeba-induced cytotoxicity of host cells, in vitro cytopathic assays were performed using both primary and immortalized cultures of corneal epithelium as host cells. Immortalized cells were assayed as confluent cultures in 24-well plates, and primary cells were assayed as confluent cells in 35-mm dishes or 6-well plates.
The parasites (>95% trophozoites) were rinsed three times in a serum-free Eagle's minimum essential medium supplemented with 0.4% bovine serum albumin (SFB) and aliquots of the parasite suspension (0.2×10^5 to 1×10^6 parasites/ml SFB medium, 300 μl/well for 24-well plates and 500 μl/well for 6-well plates or 35-mm dishes) were added to wells of confluent epithelial cultures which had been rinsed and preincubated in SFB medium for 2 hours. The plates were incubated at 37° C. in a CO2 incubator and periodically examined under a phase-contrast microscope for the presence of cell-free plaques in the monolayer for up to 28-30 hours. Control wells contained host cells without the parasites. At the end of the incubation period, the cultures were stained with Giemsa (Diff-Quik, Dade Diagnostic Inc., Aguada, PR). Approximate cell density in each well was estimated by scanning the stained plates in a calibrated, computer-assisted Bio-Image Scanner (Millipore, Ann Arbor, Mich.). Cytopathic effect (CPE) was expressed as percentage of the optical density by the following formula: [formula]
Primary cultures were less susceptible to amoeba-induced CPE, requiring 1×10^6 parasites/ml to completely destroy the monolayer within 24 hours. This parasite concentration was five times higher than that required to produce the same effect when immortalized cultures were used as target host cells.

[3] = tested on: Acanthamoeba; assay: Acanthamoeba-induced cytopathic effect (CPE) assay, immortalized corneal epithelial cultures; conditions: for Inhibition of amoeba-induced CPE: no concentration stated
Procedure: Corneal epithelial cells with extended life span were also produced.
as §1
The plates were incubated at 37° C. in a CO2 incubator and periodically examined under a phase-contrast microscope for the presence of cell-free plaques in the monolayer for up to 28-30 hours. Control wells contained host cells without the parasites. At the end of the incubation period, the cultures were stained with Giemsa (Diff-Quik, Dade Diagnostic Inc., Aguada, PR). Approximate cell density in each well was estimated by scanning the stained plates in a calibrated, computer-assisted Bio-Image Scanner (Millipore, Ann Arbor, Mich.). Cytopathic effect (CPE) was expressed as percentage of the optical density by the following formula: [formula]
The CPE assays were performed in the SFB media containing one or more saccharides to be tested.
After staining with Giemsa, percent cell loss in each well was calculated based on the optical density in each well.

Compound: CO[C@H]1O[C@H](CO)[C@@H](O)[C@H](O)[C@@H]1O [Methyl-α-D-mannopyranoside]
- Adhesion of amoebae to the cell monolayer in presence of saccharide [1]: did not adhere
- Inhibition of amoeba-induced CPE [2]: inhibited CPE
- inhibition at 310 µM ([3]; Acanthamoeba, in Oryctolagus cuniculus, at 0.31 mM, read-out: Inhibition of cytopathic effect (% inhib. at indicated conc.)): 61%
- Time at which cell layer began to lift from the periphery ([3]; incubation with amoebae in presence of saccharide, without it nearly complete loss after about 20 hours): 20 to 28 h
- Inhibition of amoeba-induced CPE ([3]; listed as Methyl-α-mannopyranoside): potent inhibitors
- Inhibition of amoeba-induced CPE ([3]; listed as α-Man): nearly identical
- Amoeba-induced cytolysis of corneal epithelial cells (microscopy, words) ([3]; saccharide present in media): substantially inhibited
- Cell-free plaques in monolayer ([3]; saccharide present in media): not detected
